Assay results taken from patent US20250235543A1, “MODIFIED PROTEINS AND PROTEIN DEGRADERS” (Cullgen (Shanghai), Inc., priority 2021, published 2025).

Tests used:
cyclin D1 = experiment: Cyclin D1 percentage degradation in Calu-1 cells (immunoblotting); assay type: cell-based; conditions: 16 hours
Method in brief: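 Cyclin D1 degradation was assessed by western blot. Clarified lysates, obtained by RIPA lysis with inhibitors and centrifugation at 13,000 rpm, were normalized by BCA protein assay and separated by SDS-PAGE. Bands were detected with Western ECL Substrate on a Bio-Rad ChemiDoc MP Imaging system and quantified in Image Lab software to derive percentage degradation.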

CDK4 = molecular target: T1, CDK4 (Homo sapiens, UniProt P11802); experiment: CDK4 percentage degradation in Calu-1 cells (immunoblotting); assay type: cell-based; conditions: Calu-1 cells, 16 hours; for inhibition at 0.2 µM: 200 nM, read-out: CDK4 Degradation (200 nM); for inhibition at 10 µM: read-out: CDK4 Degradation (10 μM)
T1 construct: endogenous in cells; host or cells: Calu-1
T1 sequence (P11802 2-303 limits assumed): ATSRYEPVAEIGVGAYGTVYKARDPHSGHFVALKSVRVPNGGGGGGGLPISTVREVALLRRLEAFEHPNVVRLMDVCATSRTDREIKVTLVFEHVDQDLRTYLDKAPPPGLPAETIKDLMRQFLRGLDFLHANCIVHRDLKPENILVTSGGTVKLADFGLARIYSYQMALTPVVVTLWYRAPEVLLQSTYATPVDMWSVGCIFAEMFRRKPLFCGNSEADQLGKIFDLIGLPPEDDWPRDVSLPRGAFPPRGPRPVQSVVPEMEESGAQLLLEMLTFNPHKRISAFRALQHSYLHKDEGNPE
T1 sequence (P24385 whole entry partner): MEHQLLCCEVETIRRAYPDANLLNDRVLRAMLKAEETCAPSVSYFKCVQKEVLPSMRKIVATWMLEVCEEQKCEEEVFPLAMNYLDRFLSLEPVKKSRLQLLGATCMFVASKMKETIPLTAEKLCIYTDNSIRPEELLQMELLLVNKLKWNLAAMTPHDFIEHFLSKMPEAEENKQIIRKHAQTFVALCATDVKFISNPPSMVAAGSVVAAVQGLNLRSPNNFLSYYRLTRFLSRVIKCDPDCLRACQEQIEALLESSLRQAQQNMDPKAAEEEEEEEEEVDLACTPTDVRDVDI
T1 sequence (Q16531 2-1140 limits assumed, further chain): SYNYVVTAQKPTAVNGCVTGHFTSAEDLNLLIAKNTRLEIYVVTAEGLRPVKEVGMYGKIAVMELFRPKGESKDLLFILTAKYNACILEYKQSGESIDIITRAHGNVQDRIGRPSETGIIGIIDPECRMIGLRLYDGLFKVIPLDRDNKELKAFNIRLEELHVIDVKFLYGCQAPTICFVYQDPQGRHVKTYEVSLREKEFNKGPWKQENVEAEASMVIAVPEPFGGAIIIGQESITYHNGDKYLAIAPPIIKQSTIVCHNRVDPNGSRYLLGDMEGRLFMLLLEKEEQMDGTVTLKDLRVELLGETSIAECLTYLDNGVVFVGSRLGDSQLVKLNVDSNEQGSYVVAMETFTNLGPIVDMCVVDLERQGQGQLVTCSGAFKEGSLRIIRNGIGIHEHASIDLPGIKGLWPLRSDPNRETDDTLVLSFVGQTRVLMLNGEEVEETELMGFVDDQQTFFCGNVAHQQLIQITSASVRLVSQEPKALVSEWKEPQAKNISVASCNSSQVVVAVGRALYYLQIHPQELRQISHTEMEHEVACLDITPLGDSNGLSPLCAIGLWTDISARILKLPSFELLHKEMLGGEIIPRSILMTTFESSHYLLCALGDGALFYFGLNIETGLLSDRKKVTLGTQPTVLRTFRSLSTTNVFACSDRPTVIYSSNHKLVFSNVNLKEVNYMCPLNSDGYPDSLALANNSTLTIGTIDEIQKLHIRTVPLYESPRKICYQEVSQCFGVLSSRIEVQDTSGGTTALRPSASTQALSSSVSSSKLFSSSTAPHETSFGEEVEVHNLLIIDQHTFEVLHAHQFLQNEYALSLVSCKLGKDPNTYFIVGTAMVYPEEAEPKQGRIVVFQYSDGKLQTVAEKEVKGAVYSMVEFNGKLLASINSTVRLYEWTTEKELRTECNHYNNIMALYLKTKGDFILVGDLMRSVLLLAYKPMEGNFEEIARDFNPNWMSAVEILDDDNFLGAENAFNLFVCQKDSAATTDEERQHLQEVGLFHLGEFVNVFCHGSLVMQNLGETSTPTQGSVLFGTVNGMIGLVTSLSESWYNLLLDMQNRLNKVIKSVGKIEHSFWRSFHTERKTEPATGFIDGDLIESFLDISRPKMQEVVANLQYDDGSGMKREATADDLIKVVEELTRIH
Method in brief: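 CDK4 degradation was measured by immunoblotting. Cells were washed in cold PBS and lysed in RIPA buffer with inhibitors for 30 min at 4° C., then spun at 13,000 rpm to clear. After BCA protein determination, lysates were heated at 99° C. for 5 min in Laemmli buffer, resolved on SDS-PAGE, imaged on a ChemiDoc MP with ECL substrate, and band intensities quantified.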

| SMILES | CyclinD1 Degradation (200 nM) (cyclin D1) | inhibition at 0.2 µM (CDK4) | CyclinD1 Degradation (10 μM) (cyclin D1) | inhibition at 10 µM (CDK4) |
| --- | --- | --- | --- | --- |
| CC(=O)c1c(C)c2cnc(Nc3ccc(N4CCN(CC(=O)NCCCCCNc5cc(Cl)ccc5C(=O)Nc5ccc(N(C)C)nn5)CC4)cn3)nc2n(C2CCCC2)c1=O [CPD-374, 2-((5-(2-(4-(6-((6-Acetyl-8-cyclopentyl-5-methyl-7-oxo-7,8-dihydropyrido[2,3-d]pyrimidin-2-yl)amino)pyridin-3-yl)piperazin-1-yl)acetamido)pentyl)amino)-4-chloro-N-(6-(dimethylamino)pyridazin-3-yl)benzamide] | A (protein percentage degradation >=80%) | 50 to 80% | – | – |
| Cc1nc(NC(=O)c2ccccc2NC(=O)CCOCCNC(=O)CN2CCN(c3ccc(Nc4ncc(F)c(-c5cc(F)c6nc(C)n(C(C)C)c6c5)n4)nc3)CC2)sc1C [CPD-308, N-(4,5-Dimethylthiazol-2-yl)-2-(3-(2-(2-(4-(6-((5-fluoro-4-(4-fluoro-1-isopropyl-2-methyl-1H-benzo[d]imidazol-6-yl)pyrimidin-2-yl)amino)pyridin-3-yl)piperazin-1-yl)acetamido)ethoxy)propanamido)benzamide] | – | – | B (protein percentage degradation < 80%, and >= 50%) | < 30% |
| CC(=O)c1c(C)c2cnc(Nc3ccc(N4CCN(CC(=O)NCCCCCCC(=O)Nc5ccccc5C(=O)Nc5nc(C)c(C)s5)CC4)cn3)nc2n(C2CCCC2)c1=O [CPD-169, 2-(7-(2-(4-(6-((6-Acetyl-8-cyclopentyl-5-methyl-7-oxo-7,8-dihydropyrido[2,3-d]pyrimidin-2-yl)amino)pyridin-3-yl)piperazin-1-yl)acetamido)heptanamido)-N-(4,5-dimethylthiazol-2-yl)benzamide] | D (protein percentage degradation <30%) | < 30% | – | – |
| CC(=O)c1c(C)c2cnc(Nc3ccc(N4CCN(CC(=O)NCCOCCOCCC(=O)Nc5ccccc5C(=O)Nc5cnc(C)cn5)CC4)cn3)nc2n(C2CCCC2)c1=O [CPD-054, 2-(3-(2-(2-(2-(4-(6-((6-Acetyl-8-cyclopentyl-5-methyl-7-oxo-7,8-dihydropyrido[2,3-d]pyrimidin-2-yl)amino)pyridin-3-yl)piperazin-1-yl)acetamido)ethoxy)ethoxy)propanamido)-N-(5-methylpyrazin-2-yl)benzamide] | A (protein percentage degradation >=80%) | 50 to 80% | – | – |
| Cc1nc(NC(=O)c2ccccc2NC(=O)CCCCCCCCNC(=O)CN2CCN(Cc3ccc(Nc4ncc(F)c(-c5cc(F)c6nc(C)n(C(C)C)c6c5)n4)nc3)CC2)sc1C [CPD-279, N-(4,5-Dimethylthiazol-2-yl)-2-(9-(2-(4-((6-((5-fluoro-4-(4-fluoro-1-isopropyl-2-methyl-1H-benzo[d]imidazol-6-yl)pyrimidin-2-yl)amino)pyridin-3-yl)methyl)piperazin-1-yl)acetamido)nonanamido)benzamide] | – | – | D (protein percentage degradation < 30%) | < 30% |
